Measurements taken from patent publication US10640533B2, “Epoxyketone compounds for enzyme inhibition” (CENTRAX INTERNATIONAL, INC., priority 2014, dated 2020).
Converted amounts (≈) assume the structure as drawn. Read-outs that look alike come from different tables or passages of the source.

Legend:
[1] = tested on: CT-L activity of the 20S proteasome in blood samples; assay: Inhibition of proteasome CT-L activity in blood samples from dosed Balb/c mice; assay type: in vivo; conditions: one hour after dosing, vs vehicle
Experimental: (§1) The proteasome activity in the blood samples collected from mice administrated of the vehicle was considered as 100% (control group). The remaining activity was calculated by comparing the proteasome activity in the blood samples collected from mice administrated of a compound described herein via intravenous injection (IV) at 10 mg/kg or via oral gavage (PO) at 30 mg/kg to the control group.
(§2) Balb/c mice were administered of either a vehicle (20% (w/v) hydroxypropyl-β-cyclodextrin in 10 mM sodium citrate at pH3.5), or a compound described herein at a tolerated dose via intravenous injection at 10 mg/kg or oral gavage at 30 mg/kg. One hour after dosing, whole blood samples were collected into tubes containing sodium heparin by cardiac puncture and centrifuged at 150×g for 5 minutes at 4° C. The resulting pellet was washed using ice-cold phosphate buffered saline (PBS) three times. […] The concentration of the blood lysate was measured by BCA method. […] The free AMC fluorescence was quantified using a 360/460 nm filter set in a fluorometer to measure the CT-L, PGPH or T-L activities of the 20S proteasome. Percent inhibition of the proteasome activity was calculated by comparing the samples collected from the mice administrated of a compound described herein to the samples collected from the mice administrated of the vehicle. […]

[2] = target: Constitutive 20S proteasome peptidylglutamyl peptide hydrolyzing (PGPH) activity (Homo sapiens (Human), UniProt P28072+Q99436); assay: Constitutive 20S proteasome PGPH activity inhibition, fluorogenic substrate Z-Leu-Leu-Glu-AMC; assay type: biochemical; conditions: purified human 20S proteasome, room temperature, one hour
Experimental: (§3) Inhibition of the 20S proteasome can be determined by methods and assays known in the art, for example, as disclosed by Stein et al., Biochemistry (1996), 35, 3899-3908; by Lightcap et al., Clinical Chemistry, 2000, 46, 673-683; by Kisselev et al., Journal of Biological Chemistry. (2006), 281, 8582-8590 and in U.S. application Ser. No. 09/569,748. The chymotrypsin-like (CT-L), peptidylglutamyl peptide hydrolyzing (PGPH) and trypsin-like (T-L) activities of the 20S proteasome are measured with a fluorogenic substrate assay method using succinyl-Leu-Leu-Val-Tyr-AMC, Z-Leu-Leu-Glu-AMC and Boc-Leu-Arg-Arg-AMC, respectively, as the substrates in an assay buffer. The free fluorophore 7-Amino-4-methylcoumarin (AMC) after cleavage from the substrates is quantified using a fluorometer and activity of CT-L, PGPH and T-L of 20S proteasome is determined.
(§4) Inhibition of the chymotrypsin-like (CT-L), peptidylglutamyl peptide hydrolyzing activity (PGPH), and trypsin-like (T-L) activities of the 20S proteasome in enzymatic assays were determined using succinyl-Leu-Leu-Val-Tyr-AMC (10 μmol/L), Z-Leu-Leu-Glu-AMC (10 μmol/L) and Boc-Leu-Arg-Arg-AMC (50 μmol/L), respectively, as the substrates with purified human 20S proteasome at 2, 4 and 8 nmol/L, respectively, in the assay buffer containing 25 mM HEPES (pH7.5), 0.5 mM EDTA, 0.002% sodium dodecyl sulfate (SDS) and 0.05% NP-40. Stock solutions of the 20S proteasome inhibitors disclosed herein were prepared in dimethyl sulfoxide (DMSO) and the final DMSO concentration in the assay mixture was 1%. Reaction was conducted at room temperature for one hour. Proteasome activity was measured based on detection of the fluorophore 7-Amino-4-methylcoumarin (AMC) after cleavage from the substrates with a plate-based spectrofluorometer.

[3] = Aqueous solubility of the compounds; assay type: physicochemical; conditions: 50 mM citrate buffer, pH 4, aqueous buffer, thermodynamic from solid, 50 mM citrate pH4.0, 25° C.
Experimental: To determine the solubility of the compounds, 1-5 mg of a compound was weighed into a vial. 1 mL of aqueous buffer (50 mM citrate at pH4.0) was added. The vial was shaken at 25° C. for 24 hours and then centrifuged for 10 min at 10000 rpm. The supernatant was filtered through a 0.45 μm membrane filter and analyzed for the concentration of the compound. In certain embodiments, the aqueous solubility of the compounds is described herein in Table 1.

[4] = target: 20S Immunoproteasome trypsin-like (T-L) activity (Homo sapiens (Human), UniProt P40306+P49720); assay: 20S immunoproteasome T-L activity inhibition, fluorogenic substrate Boc-Leu-Arg-Arg-AMC; assay type: biochemical; conditions: purified human 20S proteasome, room temperature, one hour
Experimental: as §3, §4

[5] = target: Constitutive 20S proteasome chymotrypsin-like (CT-L) activity (Homo sapiens (Human), UniProt P20618+P28074); assay: Constitutive 20S proteasome CT-L activity inhibition, fluorogenic substrate succinyl-Leu-Leu-Val-Tyr-AMC; assay type: biochemical
Experimental: as §3, §4

[6] = target: 20S Immunoproteasome peptidylglutamyl peptide hydrolyzing (PGPH) activity (Homo sapiens (Human), UniProt P28065+P40306); assay: 20S immunoproteasome PGPH activity inhibition, fluorogenic substrate Z-Leu-Leu-Glu-AMC; assay type: biochemical; conditions: purified human 20S proteasome, room temperature, one hour
Experimental: as §3, §4

[7] = target: Constitutive 20S proteasome trypsin-like (T-L) activity (Homo sapiens (Human), UniProt P49720+Q99436); assay: Constitutive 20S proteasome T-L activity inhibition, fluorogenic substrate Boc-Leu-Arg-Arg-AMC; assay type: biochemical
Experimental: as §3, §4

[8] = target: 20S Immunoproteasome chymotrypsin-like (CT-L) activity (Homo sapiens (Human), UniProt P20618+P28062); assay: 20S immunoproteasome CT-L activity inhibition, fluorogenic substrate succinyl-Leu-Leu-Val-Tyr-AMC; assay type: biochemical; conditions: purified human 20S proteasome, room temperature, one hour
Experimental: as §3, §4

[9] = tested on: T-L activity of the 20S proteasome in blood samples; assay: Inhibition of proteasome T-L activity in blood samples from dosed Balb/c mice; assay type: in vivo; conditions: intravenous 10 mg/kg or oral gavage 30 mg/kg (route not given), one hour after dosing, vs vehicle
Experimental: as §1, §2

[10] = form of 20S proteasome not stated, 'below about'
[11] = purified human 20S proteasome, room temperature, one hour, read-out: Proteasome inhibition IC50 (nM) Constitutive 20S proteasome CT-L
[12] = purified human 20S proteasome, room temperature, one hour, read-out: Proteasome inhibition IC50 (nM) Constitutive 20S proteasome T-L

Structure (SMILES) | inhibition of CT-L activity in blood samples ([1]; oral gavage at 30 mg/kg) | IC50 [2] [nM] | solubility at 24 h [3] [µg/mL] | IC50 [4] [nM] | IC50 [5, 10] [nM] | IC50 [5, 11] [nM] | IC50 [6] [nM] | IC50 [7, 12] [nM] | IC50 [8] [nM] | inhibition of CT-L activity in blood samples ([1]; intravenous 10 mg/kg or oral gavage 30 mg/kg (route not given)) | IC50 ([7]; form of 20S proteasome not stated, 'below about', read-out: concentration showing inhibition of T-L activity of the 20S proteasome) [nM] | inhibition of T-L activity in blood samples [9]
COC[C@H](NC(=O)[C@H](CCc1ccccc1)NC(=O)c1cc(CN2CCOCC2)on1)C(=O)N[C@@H](Cc1ccccc1)C(=O)[C@@]1(C)CO1 [CX13-603] | inhibited the CT-L activity in blood samples | > 20000 | 520 (≈ 786 µM) | > 20000 | < 50 | 14.2 | > 20000 | > 20000 | 11.1 |  |  | 
COC[C@H](NC(=O)[C@H](CCc1ccccc1)NC(=O)Cc1ccc(CN2CCOCC2)cc1)C(=O)N[C@@H](Cc1ccccc1)C(=O)[C@@]1(C)CO1 [CX13-608] |  | > 20000 | 1430 (≈ 2090 µM) | 542 | < 5 | 3.73 | > 20000 | 490 | 4.26 | inhibited both CT-L and T-L activity | < 500 | inhibited both CT-L and T-L activity
